Key:
[1] = system: human glioblastoma stemlike cells and serum-cultured human glioblastoma cells; conditions: Weichert 2014, FIG. 2; cited from earlier work
[2] = system: cancer cell lines (renal, ovarian, pancreatic, melanoma, prostate) vs normal human skin fibroblast; test: CLR1501 uptake in cancer cell lines vs normal fibroblasts (confocal microscopy); format: cell-based; conditions: 24 hours, 5 or 7.5 μM, in vitro
Source text: Human cancer cell lines were purchased from the American Type Culture Collection (ATCC). They included the following: Caki-2 (renal; clear cell carcinoma), HCT-116 (colorectal carcinoma); MES-SA/Dx5 (uterine sarcoma) [all maintained in McCoy's 5a medium supplemented with 10% fetal bovine serum (FBS)], Ovcar-3 (ovarian adenocarcinoma) [maintained in RPMI medium supplemented with 20% FBS], U87-MG (glioma) [maintained in minimum essential medium supplemented with 10% FBS], Mia Paca-2 (pancreatic carcinoma) (maintained in Dulbecco's modified Eagle's medium supplemented with 10% FBS), PC-3 (prostate carcinoma) (maintained in F-12K medium supplemented with 10% FBS), MDA-MB-231 (triple-negative mammary gland adenocarcinoma) (maintained in Leibovitz's medium supplemented with 10% FBS), and A549 (non-small cell lung carcinoma) (maintained in F-12 medium supplemented with 10% FBS). Normal human skin fibroblasts were purchased from ATCC and grown in Fibroblast Basal Medium PCS-201-030 supplemented with serum-free kit (Fibroblast Growth Kit-Serum-Free PCS-201-040). […]
All cells were maintained at 37° C. in appropriate medium supplemented with 10% FBS and 5% CO2. […] The emission signal of CLR1501 was detected using Alexa Fluor 488 filters (ex/em 480/520 nm). […]

MDA-MB-468 cells [3] = test: Annexin V/PI flow cytometry, MDA-MB-468; format: cell-based; conditions: MDA-MB-468, 1 uM, 48 hrs
MDA-MB-468 cells [4] = test: Annexin V/PI flow cytometry, MDA-MB-468; format: cell-based
Experimental: (§1) Debris was eliminated from this analysis.
MDA-MB-468 cells, were also treated with CLR conjugates (CLR1606 and CLR1607) for 72 hours and with geldanamycin (“GEL”) for 48 hours.
(§2) CLR conjugates appear to require a longer treatment period with cells to induce cell death.

[5] = system: MDA-MB-468, NCI-H1299, NCI-H460, Capan-2, MiaPaCa-1, HT29, HCT116 and PC-3 cancer cell lines; test: Cell viability, panel of eight cancer cell lines; format: cell-based; conditions: serial concentrations
Experimental: The cell lines were then measured for cell viability and reported as IC50 for each treatment.
In vivo, free paclitaxel is taken up by cancerous tumor cells at a much lower rate due to the non-specific nature of paclitaxel uptake.

PANC-1 cells = test: Annexin V/PI flow cytometry, PANC-1; format: cell-based; conditions: table title 72 hours, GEL for 48 hours
Experimental: as §1
PANC-1 cells, a pancreatic cancer cell line, were treated with GEL conjugates (CLR1606 and CLR1607) for 72 hrs and GEL for 48 hours.

COLO 829 cells = test: Annexin V/PI flow cytometry, COLO 829; format: cell-based
Experimental: as §1
COLO 829 cells, a melanoma cell line, were treated with […] (CLR1606 and CLR1607) for 72 hrs and GEL for 48 hours.
as §2

22RV1 cells = test: Annexin V/PI flow cytometry, 22RV1; format: cell-based; conditions: table title 72 hours, GEL for 48 hours
Experimental: as §1
22RV1 cells, a prostate cancer cell line, were treated with GEL conjugates (CLR1606 and CLR1607) for 72 hrs and GEL for 48 hours. Cell viability was 20.3%, 21.3%, 16.0%, 21.9%, 15.7%, 19.4%, and 28.1% after treatment with no drug, 1 μM CLR1606, 10 μM CLR1606, 1 μM CLR1607, 10 μM CLR1607, 100 nM GEL, and 1 μM GEL, respectively.

C6 glioma = test: Rat C6 glioma model, tissue distribution of NM404; format: in vivo; conditions: C6 glioma-bearing rats, 24 h after tail vein injection
Experimental: Materials and Methods: All animals were housed and handled in accordance with the University of Wisconsin Research Animal Resources Center guidelines. Rat C6 glioma cells were propagated in DMEM medium (Life Technologies, Gaithersburg, Md.) supplemented with 10% heat-inactivated FBS (BioWhittaker, Walkersville, Md.), 100 U/ml penicillin G, […] streptomycin, and 0.01 M HEPES (Life Technologies, Gaithersburg, Md.). Intracranial tumor implantation was performed as described previously. Cohen J D, et al., Intracranial C6 glioma model in adult Wistar-Furth rats. J Neuro Oncol 1990 8(1):95-6. Briefly, 1×10^6 C6 cells were resuspended in […] 1.2% methylcellulose and injected into the frontal lobes of anesthetized female Wistar rats (Harlan, Indianapolis, Ind.). Sham-operated animals received intracranial injections of an equal volume of methylcellulose without tumor cells.
Imaging Studies: Ten days after implantation, the presence of intracranial tumors was confirmed with MRI. […]
NM404 [18-(4-iodophenyl)-octadecylphosphocholine] […] In addition, normal brain, blood, kidney, liver, spleen, thyroid, and tumor tissues were weighed, and radioactivity counted in a gamma counter. The tissue distribution of radioactivity was then correlated to brain histology.

PC-3 cells = test: 125I-CLR1404 uptake after lipid raft disruption with filipin III; format: cell-based; conditions: PC-3 cells pretreated with 2 μg/ml filipin III 15 min, then 125I-CLR1404 1 h; vs untreated control cells
Experimental: PC-3 cells were pretreated with either 2 μg/ml filipin III or vehicle for 15 min, then washed and incubated with 2 μCi of ^125I-CLR1404 for 1 h. The media was removed and the cells were washed with phosphate buffered saline containing 0.1% bovine serum albumin, trypsinized, then split into two samples for determination of cell number by DNA content (A280 compared to a cell line specific standard curve) and counts per minute using a Gamma Counter (Perkin Elmer).
This supports the hypothesis that CLR1404 uses lipid rafts as portals of entry into cancer cells.

[6] = MDA-MB-468, 1 uM, 72 hrs (Table 3)

C[N+](C)(C)CCOP(=O)([O-])OCCCCCCCCCCCCCCCCCCc1ccc(C2=C3C=CC=[N+]3[B-](F)(F)n3cccc32)cc1 [CLR1501]
uptake compared to normal human astrocytes and fetal human neural stem cells [1]: enhanced uptake | preferential uptake in cancer cell lines compared to normal fibroblasts [2]: five to nine-fold

CC(=O)O[C@H]1C(=O)[C@@]2(C)[C@H]([C@H](OC(=O)c3ccccc3)[C@]3(O)C[C@H](OC(=O)[C@H](OC(=O)CCCC(=O)Nc4ccc(CCCCCCCCCCCCCCCCCCOP(=O)([O-])OCC[N+](C)(C)C)cc4)[C@@H](NC(=O)c4ccccc4)c4ccccc4)C(C)=C1C3(C)C)[C@]1(OC(C)=O)CO[C@@H]1C[C@@H]2O [CLR1601]
Late Apoptotic (MDA-MB-468 cells [3]): 6 % of total cells | Live (MDA-MB-468 cells [3]): 79.4 % of total cells | Early Apoptotic (MDA-MB-468 cells [4]; [6]): 9.83 % of total cells | Live (MDA-MB-468 cells [4]; [6]): 17 % of total cells | Live (MDA-MB-468 cells [4]; MDA-MB-468, 5 uM, 72 hrs): 17.8 % of total cells | ability to reduce cancer cell line viability [5]: capable of reducing cell viability

CC(=O)O[C@H]1C(=O)[C@]2(C)[C@@H](OC(=O)NCCCC(=O)Nc3ccc(CCCCCCCCCCCCCCCCCCOP(=O)([O-])OCC[N+](C)(C)C)cc3)C[C@H]3OC[C@@]3(OC(C)=O)[C@H]2[C@H](OC(=O)c2ccccc2)[C@]2(O)C[C@H](OC(=O)[C@H](O)[C@@H](NC(=O)c3ccccc3)c3ccccc3)C(C)=C1C2(C)C [CLR1602]
ability to reduce cancer cell line viability [5]: not capable of significantly reducing cancer cell line viability

CC(=O)O[C@H]1C(=O)[C@@]2(C)[C@H]([C@H](OC(=O)c3ccccc3)[C@]3(O)C[C@H](OC(=O)[C@H](OC(=O)OCCCCC(=O)Nc4ccc(CCCCCCCCCCCCCCCCCCOP(=O)([O-])OCC[N+](C)(C)C)cc4)[C@@H](NC(=O)c4ccccc4)c4ccccc4)C(C)=C1C3(C)C)[C@]1(OC(C)=O)CO[C@@H]1C[C@@H]2O [CLR1603]
Early Apoptotic (MDA-MB-468 cells [3]): 1.4 % of total cells | Live (MDA-MB-468 cells [3]): 81.4 % of total cells | Live (MDA-MB-468 cells [4]; [6]): 22.2 % of total cells | Necrotic (MDA-MB-468 cells [4]; [6]): 22 % of total cells | Live (MDA-MB-468 cells [4]; MDA-MB-468, 5 uM, 72 hrs): 19.7 % of total cells | ability to reduce cancer cell line viability [5]: capable of reducing cell viability

COC1=C2C[C@@H](C)C[C@H](OC)[C@H](O)[C@@H](C)/C=C(\C)[C@H](OC(N)=O)[C@@H](OC)/C=C\C=C(/C)C(=O)NC(=CC1=O)C2=O [GEL, geldanamycin]
Live (PANC-1 cells; PANC-1, GEL 100 nM): 23.3 % of total cells | Live (PANC-1 cells; PANC-1, GEL 1 uM): 18.9 % of total cells | Live (MDA-MB-468 cells [4]; MDA-MB-468, GEL 1 uM, table title 72 hours, text: geldanamycin for 48 hours): 26.2 % of total cells | Live (COLO 829 cells; COLO 829, 100 nM, 48 hrs (Table 9)): 36.1 % of total cells | Live (COLO 829 cells; COLO 829, 1 uM, 48 hrs (Table 9)): 24.6 % of total cells | Live (COLO 829 cells; COLO 829, GEL 100 nM, Table 5 title 72 hours, GEL for 48 hours): 32.4 % of total cells | Live (COLO 829 cells; COLO 829, GEL 1 uM, Table 5 title 72 hours, GEL for 48 hours): 18.6 % of total cells | Live (22RV1 cells; 22RV1, GEL 100 nM): 19.4 % of total cells | Live (22RV1 cells; 22RV1, GEL 1 uM): 28.1 % of total cells

C[N+](C)(C)CCOP(=O)([O-])OCCCCCCCCCCCCCCCCCCc1ccc(I)cc1 [NM404, 18-(4-iodophenyl)-octadecylphosphocholine]
Tumor to brain ratio (% injected dose/g) (C6 glioma): 10.5 | reduction of uptake when lipid rafts are disrupted (PC-3 cells): ~40%

— patent US9480754B2, “Phospholipid ether analogs as cancer-targeting drug vehicles” (Cellectar Biosciences, Inc., priority 2014, dated 2016)
